Laboratory results taken from US8067424B2, “Selective inhibitors for cyclin-dependent kinases” (Emory University, priority 2007, dated 2011).
Where two headings read alike, the source gives them in different places.

Assays:
Format in all cases: biochemical
P38β MAPK = P38β MAPK (Homo sapiens, UniProt Q15759); assay: Kinase screen: SAPK 2b/p38β2 assay
Description: (§1) Generally, the same procedure was used for all assays. Since the total assay volume was 25.5 microliters, 0.5 microliters of inhibitors at 51× assay concentration were added to the plates before any other addition.
(§2) The basic procedure was to add 0.5 microliters inhibitor/control in DMSO to plate. Fifteen microliters of enzyme/substrate/buffer mix were added and incubated for 5 min. Ten microliters MgATP at the relevant concentration were added and incubated for 30 min. The assay was stopped by adding 5 microliters of 3% orthophosphoric acid. The assay was transferred to a p81 filter plate and read in a scintillation counter of 30 sec/well. Note that this assay procedure was not followed for MKK1, which instead involved a two-step assay, and PKC alpha, which required the addition of lipid vesicles.
SAPK 2b/p38β2 assay: SAPK 2b/p38β2 (5-20 mU diluted in 50 mM Tris pH 7.5, 0.1 mM EGTA, 0.1 mM Na3VO4, 0.1% b-mercaptoethanol, 1 mg/ml BSA) was assayed against MBP in a final volume of 25.5 μl containing 25 mM Tris pH 7.5, 0.1 mM EGTA, 0.33 mg/ml MBP, 10 mM magnesium acetate and 0.02 mM [33P-g-ATP] (50-1000 cpm/pmole) and incubated for 30 min at room temperature. Assays were stopped by addition of 5 μl of 0.5 M (3%) orthophosphoric acid and then harvested onto P81 Unifilter plates with a wash buffer of 50 mM orthophosphoric acid.

NEK2a = target: T1, NEK2a (Homo sapiens, UniProt P51955); assay: Kinase screen: NEK2a assay
T1 sequence (P51955 1-445): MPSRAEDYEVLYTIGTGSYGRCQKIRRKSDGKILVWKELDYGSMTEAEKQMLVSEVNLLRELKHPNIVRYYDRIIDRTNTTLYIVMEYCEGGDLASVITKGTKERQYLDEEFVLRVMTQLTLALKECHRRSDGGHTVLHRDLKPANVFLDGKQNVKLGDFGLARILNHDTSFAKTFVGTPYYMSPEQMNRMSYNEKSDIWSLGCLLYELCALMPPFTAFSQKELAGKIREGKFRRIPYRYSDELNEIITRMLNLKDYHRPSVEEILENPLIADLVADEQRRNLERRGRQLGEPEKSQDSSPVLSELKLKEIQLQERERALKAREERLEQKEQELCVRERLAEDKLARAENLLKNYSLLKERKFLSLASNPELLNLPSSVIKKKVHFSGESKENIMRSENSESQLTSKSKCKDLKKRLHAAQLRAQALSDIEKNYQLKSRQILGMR
Description: as §1, §2
NEK2a assay: 5-20 mU of NEK2a (diluted in 50 mM Tris (pH 7.5), 0.1 mM EGTA, 1 mg/ml BSA, 0.1%, b-Mercaptoethanol) was assayed against NEK2a peptide ([…]) (SEQ ID NO: 19) in a final volume of 25.5 μl containing 50 mM Tris (pH 7.5), 0.1 mM EGTA, 0.01% Brij, 0.1%, b-Mercaptoethanol, 300 μM NEK2a peptide, 10 mM magnesium acetate and 0.05 mM [33P-g-ATP] (500-1000 cpm/pmole) and incubated for 30 mins at room temperature. Assays were stopped by addition of 5 µl of 0.5M (3%) orthophosphoric acid. Assays were harvested onto P81 Unifilter plates using a wash buffer of 50 mM orthophosphoric acid.

SYK = SYK (Homo sapiens, UniProt P43405); assay: Kinase screen: SYK assay; conditions: 10 micromolar compound; for remaining activity at 10 µM: read-out: mean activity remaining (as a percentage of the original activity), SYK
Description: as §1, §2
SYK assay: SYK (5-20 mU diluted in 50 mM Tris pH 7.5, 0.1 mM EGTA, 1 mg/ml BSA) was assayed against a substrate peptide (Poly Glut Tyr) in a final volume of 25.5 μl containing 50 mM Tris pH 7.5, 1 mg/ml substrate peptide, 10 mM magnesium acetate and 0.02 mM [33P-g-ATP] (50-1000 cpm/pmole) and incubated for 30 min at room temperature. Assays were stopped by addition of 5 μl of 0.5 M (3%) orthophosphoric acid and then harvested onto P81 Unifilter plates with a wash buffer of 50 mM orthophosphoric acid.

BRSK2 = target: T2, BRSK2 (Homo sapiens, UniProt Q8IWQ3); assay: Kinase screen: BRSK2 assay
T2 sequence (Q8IWQ3 1-736): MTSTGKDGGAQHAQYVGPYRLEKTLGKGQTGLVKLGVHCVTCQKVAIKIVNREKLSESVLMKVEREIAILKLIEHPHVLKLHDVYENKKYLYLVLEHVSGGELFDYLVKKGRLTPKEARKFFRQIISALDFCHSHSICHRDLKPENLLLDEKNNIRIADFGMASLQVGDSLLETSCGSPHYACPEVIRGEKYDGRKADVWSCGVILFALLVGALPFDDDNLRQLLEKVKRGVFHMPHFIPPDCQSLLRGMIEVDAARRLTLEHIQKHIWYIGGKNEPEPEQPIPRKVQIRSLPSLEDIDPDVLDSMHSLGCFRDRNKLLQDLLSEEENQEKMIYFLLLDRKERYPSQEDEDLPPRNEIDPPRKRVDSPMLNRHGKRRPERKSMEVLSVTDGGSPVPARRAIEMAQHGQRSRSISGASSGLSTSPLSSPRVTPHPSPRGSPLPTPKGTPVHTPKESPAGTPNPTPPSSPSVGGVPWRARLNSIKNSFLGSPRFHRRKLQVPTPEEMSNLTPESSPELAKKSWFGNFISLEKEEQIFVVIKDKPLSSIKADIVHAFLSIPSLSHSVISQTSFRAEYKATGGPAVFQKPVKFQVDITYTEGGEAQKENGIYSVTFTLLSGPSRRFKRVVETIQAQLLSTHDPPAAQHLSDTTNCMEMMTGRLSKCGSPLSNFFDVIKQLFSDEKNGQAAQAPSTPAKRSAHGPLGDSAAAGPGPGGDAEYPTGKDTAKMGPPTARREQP
Description: as §1, §2
BRSK2 assay: BRSK2 (5-20 mU diluted in 50 mM Tris pH 7.5, 0.1 mM EGTA, 0.1% b-mercaptoethanol, 1 mg/ml BSA) was assayed against a substrate peptide ([…]) (SEQ ID NO: 33) in a final volume of 25.5 μl containing 50 mM Tris pH 7.5, 0.05% b-mercaptoethanol, 300 μM substrate peptide, 10 mM magnesium acetate and 0.05 mM [33P-g-ATP] (50-1000 cpm/pmole) and incubated for 30 min at room temperature. Assays were stopped by addition of 5 μl of 0.5 M (3%) orthophosphoric acid and then harvested onto P81 Unifilter plates with a wash buffer of 50 mM orthophosphoric acid.

[1] = 10 micromolar compound, read-out: mean activity remaining (as a percentage of the original activity), p38b MAPK
[2] = 10 micromolar compound, read-out: mean activity remaining (as a percentage of the original activity), NEK 2a
[3] = 10 micromolar compound, read-out: mean activity remaining (as a percentage of the original activity), BRSK 2

P38β MAPK, sequence (Q15759 whole entry): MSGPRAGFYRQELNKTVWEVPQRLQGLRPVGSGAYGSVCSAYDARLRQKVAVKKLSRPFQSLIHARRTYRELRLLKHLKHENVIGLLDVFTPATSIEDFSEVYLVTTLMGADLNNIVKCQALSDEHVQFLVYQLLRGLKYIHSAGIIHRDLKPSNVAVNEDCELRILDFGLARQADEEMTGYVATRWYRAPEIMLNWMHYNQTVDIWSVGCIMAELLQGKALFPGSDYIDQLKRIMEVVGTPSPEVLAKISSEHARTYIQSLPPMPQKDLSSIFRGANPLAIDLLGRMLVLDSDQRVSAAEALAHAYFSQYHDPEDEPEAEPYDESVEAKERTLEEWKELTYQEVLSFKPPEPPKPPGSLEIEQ

Question: What does the source list for `CC(C)c1cnn2c(NCc3ccccc3F)cc(NCCCCCN)nc12` [ICEC-0232]?
Answer: mean activity remaining (as a percentage of the original activity), p38b MAPK (P38β MAPK; 10 micromolar compound): 102%; mean activity remaining (as a percentage of the original activity), NEK 2a (NEK2a; 10 micromolar compound): 83%; mean activity remaining (as a percentage of the original activity), SYK (SYK): 84%; mean activity remaining (as a percentage of the original activity), BRSK 2 (BRSK2; 10 micromolar compound): 81%

Question: How did the remaining activity at 10 µM (P38β MAPK; P38β MAPK, 10 μM, read-out: Mean Remaining Enzyme Activity (%)) turn out when `CC(C)c1cnn2c(NCc3ccccc3)cc(NCCCCCCCN)nc12` [BS-181] was run?
Answer: The remaining activity at 10 µM was 115%.

Question: And the remaining activity at 10 µM (NEK2a; NEK2a, 10 μM, read-out: Mean Remaining Enzyme Activity (%))?
Answer: Its remaining activity at 10 µM is 92%.

Question: And the remaining activity at 10 µM (BRSK2; BRSK2, 10 μM, read-out: Mean Remaining Enzyme Activity (%))?
Answer: The remaining activity at 10 µM was 98%.

Question: Which remaining activity at 10 µM (P38β MAPK; [1]) does the source give for `CC[C@H](CO)Nc1cc(NCc2ccccc2)n2ncc(C(C)C)c2n1` [ICEC0067] here?
Answer: Its remaining activity at 10 µM is 98%.

Question: And the remaining activity at 10 µM (NEK2a; [2])?
Answer: Its remaining activity at 10 µM is 75%.

Question: And the remaining activity at 10 µM (SYK)?
Answer: Its remaining activity at 10 µM is 104%.

Question: And the remaining activity at 10 µM (BRSK2; [3])?
Answer: The remaining activity at 10 µM was 76%.

Question: How did the remaining activity at 10 µM (P38β MAPK; [1]) turn out when `C=C[C@H](CO)Nc1cc(NCc2ccccc2)n2ncc(C(C)C)c2n1` [ICEC0065] was run?
Answer: The remaining activity at 10 µM was 104%.

Question: And the remaining activity at 10 µM (NEK2a; [2])?
Answer: The remaining activity at 10 µM was 96%.

Question: And the remaining activity at 10 µM (SYK)?
Answer: The remaining activity at 10 µM was 104%.

Question: And the remaining activity at 10 µM (BRSK2; [3])?
Answer: Its remaining activity at 10 µM is 76%.

Question: Which remaining activity at 10 µM (P38β MAPK; [1]) does the source give for `CC(C)c1cnn2c(NCc3ccccc3)cc(N[C@@H](CO)[C@H](O)CO)nc12` [ICEC0318, (3S)-3-(7-(Benzylamino)-3-isopropylpyrazolo[1,5-a]pyrimidin-5-ylamino)butane-1,2,4-triol] here?
Answer: Its remaining activity at 10 µM is 94%.

Question: What about the remaining activity at 10 µM (NEK2a; [2]) of the same compound?
Answer: The remaining activity at 10 µM was 102%.

Question: And the remaining activity at 10 µM (SYK)?
Answer: The remaining activity at 10 µM was 120%.

Question: And the remaining activity at 10 µM (BRSK2; [3])?
Answer: The remaining activity at 10 µM was 108%.
